Assay results reported in patent publication US10294228B2, “Breathing control modulating compounds, and methods of making and using same” (NEURAD LTD., priority 2015, dated 2019).

Assays:
[1] = Polymorphic transformation by exposure to humidity; format: physicochemical; conditions: >80% humidity, three days, ambient temperature; confirmed by XRPD and DSC
Method: Approximately 10 mg of the solid as its initially obtained polymorphic form were placed in a 4 mL open vial. In a 20 mL vial, about 5 mL of distilled water were added and heated to about 50° C., then the vial was capped, and the contents were cooled for about 30 minutes at ambient temperature. Then the 20 mL vial was uncapped, the smaller vial was placed inside the bigger vial, the bigger vial was recapped, and the sample in the smaller vial was exposed and aged in an environment of approximately 80-95% relative humidity at ambient temperature for 3 days. Polymorphic transformation was confirmed by XRPD and DSC vs. that for the initially obtained polymorphic form.

anesthetized rats = assay: Anesthetized rat spirometry screening assay (ventilatory activity, minute volume); format: in vivo; conditions: increase in minute volume (VE); for change in vivo at 0.3 mg/kg: 0.3 mg/kg IV bolus, read-out: VE % Inc @ 0.3 mg/kg IV; for change in vivo at 3 mg/kg: 3.0 mg/kg IV bolus, read-out: VE % Inc @ 3.0 mg/kg IV
In short: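 Urethane-anesthetized (1.5 g/kg i.v.) rats with tracheal cannula to pneumotachometer; minute volume derived from respiratory rate × tidal volume. Compounds given as i.v. bolus at 0.1 and/or 0.3 and/or 3 mg/kg, monitored at least 6 min; data as 30 s averages.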

SMILES	polymorphic transformation on exposure to humidity [1]	change in vivo at 0.3 mg/kg (anesthetized rats)	change in vivo at 3 mg/kg (anesthetized rats)
CCCNc1nc(NC)nc2c(NCC(C)(C)O)nc(NC)nc12 [Compound 31d-1, 1-(2,6-Bis-methylamino-8-propylamino-pyrimido[5,4-d]pyrimidin-4-ylamino)-2-methyl-propan-2-ol]	converted to form Mal-B (31d-2)		
CCCNc1nc(NC)nc2c(NCC(C)(C)O)nc(NC)nc12 [Compound 31h-1, 1-(2,6-Bis-methylamino-8-propylamino-pyrimido[5,4-d]pyrimidin-4-ylamino)-2-methyl-propan-2-ol]	converted to form Tos-B (31h-2)		
C=CCNc1nc(NC)c2nc(NC[C@@H](C)O)nc(NC)c2n1 [Compound 145, (R)-1-(6-Allylamino-4,8-bis-methylamino-pyrimido[5,4-d]pyrimidin-2-ylamino)-propan-2-ol]		47%	156%
CCC(O)CNc1nc(NC)c2nc(NCC3CC3)nc(NC)c2n1 (centres unmarked) [Compound 146, 1-[6-(Cyclopropylmethyl-amino)-4,8-bis-methylamino-pyrimido[5,4-d]pyrimidin-2-ylamino]-butan-2-ol]		9%	121%
CCNc1nc(NC)c2nc(NCC(O)CC)nc(NC)c2n1 (centres unmarked) [Compound 147, 1-(6-Ethylamino-4,8-bis-methylamino-pyrimido[5,4-d]pyrimidin-2-ylamino)-butan-2-ol]		31%	147%
CNc1nc(NC)c2nc(NCC(C)(C)O)nc(NC)c2n1 [Compound 149, 2-Methyl-1-(4,6,8-tris-methylamino-pyrimido[5,4-d]pyrimidin-2-ylamino)-propan-2-ol]		16%	49%
CNc1nc(NC[C@@H](C)O)nc2c(NC)nc(N)nc12 [Compound 151, (R)-1-(6-Amino-4,8-bis-methylamino-pyrimido[5,4-d]-pyrimidin-2-ylamino)-propan-2-ol]		0%	95%
CNc1nc(NC[C@H](C)O)nc2c(NC)nc(N)nc12 [Compound 152, (S)-1-(6-Amino-4,8-bis-methylamino-pyrimido[5,4-d]-pyrimidin-2-ylamino)-propan-2-ol]		7%	89%
C=CCNc1nc(NC)c2nc(NCCO)nc(NC)c2n1 [Compound 154, 2-(6-Allylamino-4,8-bis-methylamino-pyrimido[5,4-d]pyrimidin-2-ylamino)-ethanol]		40%	103%
C=CCNc1nc(NC)c2nc(N(CCC)C[C@H](C)O)nc(NC)c2n1 [Compound 155, (S)-1-[(6-Allylamino-4,8-bis-methylamino-pyrimido[5,4-d]-pyrimidin-2-yl)-propyl-amino]-propan-2-ol]		14%	79%
C=CCNc1nc(NC)c2nc(N(C)C[C@H](C)O)nc(NC)c2n1 [Compound 156, (S)-1-[(6-Allylamino-4,8-bis-methylamino-pyrimido[5,4-d]pyrimidin-2-yl)-methyl-amino]-propan-2-ol]		16%	97%
C=C(C)CNc1nc(NC)c2nc(NC[C@@H](C)O)nc(NC)c2n1 [Compound 158, (R)-1-[6-(2-Methyl-allylamino)-4,8-bis-methylamino-pyrimido[5,4-d]-pyrimidin-2-ylamino]-propan-2-ol]		68%	120%
C=C(C)CNc1nc(NC)c2nc(NC[C@H](C)O)nc(NC)c2n1 [Compound 159, (S)-1-[6-(2-Methyl-allylamino)-4,8-bis-methylamino-pyrimido[5,4-d]-pyrimidin-2-ylamino]-propan-2-ol]		61%	160%
CCCNc1nc(NCC)c2nc(NCCO)nc(NCC)c2n1 [Compound 162, 2-(4,8-Bis-ethylamino-6-propylamino-pyrimido[5,4-d]pyrimidin-2-ylamino)-ethanol]		187%	216%
CCCNc1nc(NCC)c2nc(NCC(C)(C)O)nc(NCC)c2n1 [Compound 163, 1-(4,8-Bis-ethylamino-6-propylamino-pyrimido[5,4-d]pyrimidin-2-ylamino)-2-methyl-propan-2-ol]		88%	144%
CCNc1nc(NCC)c2nc(NC[C@H](C)O)nc(NCC)c2n1 [Compound 165, (S)-1-(4,6,8-Tris-ethylamino-pyrimido[5,4-d]pyrimidin-2-ylamino)-propan-2-ol]		66%	101%
CCCNc1nc(NCC)c2nc(NC[C@H](C)O)nc(NCC)c2n1 [Compound 166, (S)-1-(4,8-Bis-ethylamino-6-propylamino-pyrimido[5,4-d]-pyrimidin-2-ylamino)-propan-2-ol]		88%	91%
CCCNc1nc(NCC)c2nc(NC[C@@H](C)O)nc(NCC)c2n1 [Compound 169, (R)-1-(4,8-Bis-ethylamino-6-propylamino-pyrimido[5,4-d]-pyrimidin-2-ylamino)-propan-2-ol]		113%	142%
CCNc1nc(NC[C@@H](C)O)nc2c(NCC)nc(N)nc12 [Compound 171, (R)-1-(6-Amino-4,8-bis-ethylamino-pyrimido[5,4-d]-pyrimidin-2-ylamino)-propan-2-ol]		17%	175%
CCNc1nc(NC[C@H](C)O)nc2c(NCC)nc(N)nc12 [Compound 172, (S)-1-(6-Amino-4,8-bis-ethylamino-pyrimido[5,4-d]-pyrimidin-2-ylamino)-propan-2-ol]		5%	155%
C=C(C)CNc1nc(NCC)c2nc(NC[C@@H](C)O)nc(NCC)c2n1 [Compound 174, (R)-1-[4,8-Bis-ethylamino-6-(2-methyl-allylamino)-pyrimido[5,4-d]-pyrimidin-2-ylamino]-propan-2-ol]		72%	114%
C=C(C)CNc1nc(NCC)c2nc(NC[C@H](C)O)nc(NCC)c2n1 [Compound 175, (S)-1-[4,8-Bis-ethylamino-6-(2-methyl-allylamino)-pyrimido[5,4-d]-pyrimidin-2-ylamino]-propan-2-ol]		75%	134%
CCNc1nc(NCC)c2nc(NC[C@@H](C)O)nc(NCC)c2n1 [Compound 186, (R)-1-(4,6,8-Tris-ethylamino-pyrimido[5,4-d]pyrimidin-2-ylamino)-propan-2-ol]		37%	90%
